We go through 27 molecules from patent publication US5500424A, “Pyrimidine and pyridine derivatives, their production and use” (Nihon Nohyaku Co., Ltd., priority 1993, dated 1996).

Each structure is given as a SMILES string.

The target of experiment [1] is T1, acyl-CoA:cholesterol acyltransferase (ACAT) (Oryctolagus cuniculus, UniProt G1SFD9).
T1 construct: The intestinal mucosa of a white rabbit was homogenized and microsomal fraction was obtained; from tissue; host or cells: white rabbit intestinal mucosa, microsomal fraction
T1 sequence (G1SFD9 1-524): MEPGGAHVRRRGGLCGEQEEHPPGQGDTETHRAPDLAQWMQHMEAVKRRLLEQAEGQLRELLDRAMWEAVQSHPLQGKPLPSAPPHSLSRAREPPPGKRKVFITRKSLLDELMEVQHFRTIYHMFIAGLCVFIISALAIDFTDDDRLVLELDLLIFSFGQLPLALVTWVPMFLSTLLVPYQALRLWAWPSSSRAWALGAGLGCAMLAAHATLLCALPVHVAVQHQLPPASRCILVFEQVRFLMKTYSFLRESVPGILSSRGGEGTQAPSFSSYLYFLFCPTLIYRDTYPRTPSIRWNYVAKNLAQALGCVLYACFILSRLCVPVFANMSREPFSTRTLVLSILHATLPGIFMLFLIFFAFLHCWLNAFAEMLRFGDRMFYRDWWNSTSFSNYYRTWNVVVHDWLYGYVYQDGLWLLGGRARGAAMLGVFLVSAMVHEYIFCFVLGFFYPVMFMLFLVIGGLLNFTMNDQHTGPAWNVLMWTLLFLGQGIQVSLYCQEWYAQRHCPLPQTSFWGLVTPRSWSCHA
The experiment in a line: Inhibitory activity on acyl-CoA:cholesterol acyltransferase (ACAT). The class given is biochemical, white rabbit. The following applies: rabbit intestinal mucosa microsomes, read-out: Inhibition rate. Here is the method:
Inhibitory activity on acyl-CoA:cholesterol acyltransferase (ACAT)
The enzyme used in the test was prepared according to the method of Heider et al. [J. Lipid, Res. 24, 1127 (1983)]. The intestinal mucosa of a white rabbit was homogenized and microsomal fraction was obtained by stepwise centrifugation. The microsomal fraction was suspended in 0.154M phosphate buffer (pH 7.4) and stored at -80° C. until use.
ACAT activity was determined by a modification of the method of Helgerud et al. [J. Lipid Res. 22, 271 (1981)] by measuring radioactivity incorporated into cholesterol esters from [1-^14 C]oleyl-CoA, as an indication. As to the ACAT-inhibitory activity of each compound to be tested, the inhibition rate was calculated by the following equation. [formula]

In experiment [2] the test system is hamsters fed on a high-cholesterol diet. The experiment is described as follows: Serum cholesterol lowering activity in hamsters fed on a high-cholesterol diet. The class given is in vivo, Male Syrian hamsters. The note with it: Mesocricetus auratus, 30 mg/kg per day for 4 days, 24 hours after last administration, read-out: Reduction rate of total serum cholesterol concentration. The method, then: Serum cholesterol lowering activity in hamsters fed on a high-cholesterol diet
Male Syrian hamsters of 10-week-old were divided into three groups. The first group (normal group) was fed an ordinary diet for 4 days. The second group (control group) was fed a high cholesterol diet (containing 0.5% cholesterol and 8.0% coconut oil) for 4 days. The third group (treated group) was fed a high cholesterol diet and was treated with a compound for 4 days. Simultaneously with the beginning of the above feeding, the compound was suspended in a 0.5% carboxymethyl cellulose solution and administered to the treated group, in a dose of 30 mg (in terms of the compound) per kg of body weight per day for 4 days. A 0.5% carboxymethyl cellulose solution was also administered to the normal group and the control group in the same manner as above.
After 24 hours of the last administration, blood was collected and the cholesterol concentration in serum was measured by an enzymatic method. The reduction rate of the total serum cholesterol concentration was calculated from values obtained for the three groups by the following equation. [formula] wherein A: the serum cholesterol concentration of the control group.
B: the serum cholesterol concentration of the treated group.
C: the serum cholesterol concentration of the normal group.

On to `CC(C)c1cccc(C(C)C)c1NC(=O)Nc1cnc(C(C)(C)C)nc1-c1ccccc1Cl` [Compound 50, N-[2-t-Butyl-4-(2-chlorophenyl)pyrimidin-5-yl]-N'-(2,6-diisopropylphenyl)urea], for which, in experiment [1], the inhibition at 0.01 µM was 48.4%.

As for `Cc1cccc(C)c1NC(=O)Nc1cnc(-c2ccccc2)nc1-c1ccccc1Cl` [Compound 13, N-[4-(2-Chlorophenyl)-2-phenylpyrimidin-5-yl]-N'-(2,6-dimethylphenyl)urea], in experiment [1], the inhibition at 0.01 µM worked out at 40.2% and the inhibition at 1 µM stood at 97.5%.

Take `CCc1cccc(CC)c1NC(=O)Nc1cnc(-c2ccccc2)nc1-c1ccccc1Cl` [Compound 14, N-[4-(2-Chlorophenyl)-2-phenylpyrimidin-5-yl]-N'-(2,6-diethylphenyl)urea]: the inhibition in vivo at 30 mg/kg in experiment [2] turned out to be 59.4%. Besides, in experiment [1], the inhibition at 0.01 µM turned out to be 58.8% and the inhibition at 1 µM came out at 99%.

As for `Cc1cc(C)c(NC(=O)Nc2cnc(-c3ccccc3)nc2-c2ccccc2Cl)c(C)c1` [Compound 18, N-[4-(2-Chlorophenyl)-2-phenylpyrimidin-5-yl]N'-(2,4,6-trimethylphenyl) urea], the inhibition at 1 µM in experiment [1] was found to be 79.7%.

With `CCc1cccc(CC)c1NC(=O)Nc1cnc(N2CCOCC2)nc1-c1ccccc1Cl` [Compound 57, N-[4-(2-Chlorophenyl)-2-(N-morpholino)pyrimidin-5-yl]-N'-(2,6-diethylphenyl)urea], the inhibition in vivo at 30 mg/kg in experiment [2] was determined as 59.5%. Besides, the inhibition at 0.01 µM in experiment [1] turned out to be 63.2%.

`Cc1ncc(NC(=O)Nc2c(C(C)C)cccc2C(C)C)c(-c2ccccc2Cl)n1` [Compound 46, N-[4-(2-Chlorophenyl)-2-methylpyrimidin-5-yl]-N'-(2,6-diisopropylphenyl)urea]: in experiment [1], the inhibition at 0.01 µM came out at 32%.

On to `Cc1nc(-c2ccccc2)nc(-c2ccccc2Cl)c1NC(=O)Nc1ccc(N(C)C)cc1` [Compound 6, N-[4-(2-Chlorophenyl)-6-methyl-2-phenylpyrimidin-5-yl]-N'-(4-dimethylaminophenyl)urea], for which the inhibition at 1 µM in experiment [1] stood at 23%.

Regarding `CCc1cccc(CC)c1NC(=O)Nc1cnc(N2CCCC2)nc1-c1ccccc1Cl` [Compound 53, N-[4-(2-Chlorophenyl)-2-(N-pyrrolidino)pyrimidin-5-yl]-N'-(2,6-diethylphenyl)urea], the inhibition at 0.01 µM in experiment [1] stood at 70%.

Regarding `COc1ccccc1-c1nc(-c2ccccc2)ncc1NC(=O)Nc1c(C(C)C)cccc1C(C)C` [Compound 40, N-(2,6-Diisopropylphenyl)-N'-[4-(2-methoxyphenyl)-2-phenylpyrimidin-5-yl]urea], the inhibition at 0.01 µM in experiment [1] is 47.5%.

Consider `O=C(Nc1cnc(-c2ccccc2)nc1-c1ccccc1Cl)Nc1c(F)cc(F)cc1F` [Compound 23, N-[4-(2-Chlorophenyl)-2-phenylpyrimidin-5-yl]-N'-(2,4,6-trifluorophenyl)urea], for which, in experiment [1], the inhibition at 1 µM came to 87%.

`Cc1cccc(N(C)C)c1NC(=O)Nc1cnc(-c2ccccc2)nc1-c1ccccc1Cl` [Compound 19, N-[4-(2-Chlorophenyl)-2-phenylpyrimidin-5-yl]-N'-(2-dimethylamino-6-methylphenyl)urea]: in experiment [1], the inhibition at 0.01 µM came to 35.9%.

`CC(C)c1cccc(C(C)C)c1NC(=O)Nc1cnc(N2CCN(C)CC2)nc1-c1ccccc1Cl` [Compound 60, N-[4-(2-Chlorophenyl)-2-(4-methyl-1-piperazino)pyrimidin-5-yl]-N'-(2,6-diisopropylphenyl)urea]: in experiment [1], the inhibition at 0.01 µM was 40.1%.

As to `CC(C)c1cccc(C(C)C)c1NC(=O)Nc1cnc(-c2cc(Cl)cc(Cl)c2)nc1-c1ccccc1Cl` [Compound 44, N-[4-(2-Chlorophenyl)-2-(3,5-dichlorophenyl)pyrimidin-5-yl]-N'-(2,6-diisopropylphenyl)urea], the inhibition at 0.01 µM in experiment [1] came out at 46.8%.

`Cc1cccc(C(C)C)c1NC(=O)Nc1c(C)nc(-c2ccccc2)nc1-c1ccccc1Cl` [Compound 1, N-[4-(2-Chlorophenyl)-6-methyl-2-phenylpyrimidin-5-yl]-N'-(2-isopropyl-6-methylphenyl)urea]: in experiment [1], the inhibition at 0.01 µM was 16.7% and the inhibition at 1 µM was found to be 98%.

Turning to `CC(C)c1cccc(C(C)C)c1NC(=O)Nc1cnc(-c2ccccc2)nc1-c1ccccc1F` [Compound 34, N-(2,6-Diisopropylphenyl)-N'-[4-(2-fluorophenyl)-2-phenylpyrimidin-5-yl]urea], the inhibition in vivo at 30 mg/kg in experiment [2] is 74%. For the same molecule, the inhibition at 0.01 µM in experiment [1] is 65.8%.

Regarding `Cc1ccc(NC(=O)Nc2c(C(C)C)cccc2C(C)C)c(-c2ccccc2Cl)n1` [Compound 64, N-[2-(2-Chlorophenyl)-6-methylpyridin-3-yl]-N'-(2,6-diisopropylphenyl)urea], the inhibition at 0.01 µM in experiment [1] stood at 43.6%.

Regarding `CCCCCCCc1ccc(NC(=O)Nc2c(C(C)C)cccc2C(C)C)c(-c2ccccc2Cl)n1` [Compound 65, N-[2-(2-Chlorophenyl)-6-(n-heptyl)pyridin-3-yl]-N'-(2,6-diisopropylphenyl)urea], the inhibition at 0.01 µM in experiment [1] is 29.8%.

`CCc1cccc(CC)c1NC(=O)Nc1cnc(-c2ccccc2)nc1-c1ccccc1SC` [Compound 41, N-(2,6-Diethylphenyl)-N'-[4-(2-methylthiophenyl)-2-phenylpyrimidin-5-yl]urea]: in experiment [1], the inhibition at 0.01 µM worked out at 56.3%.

As for `CC(C)c1cccc(C(C)C)c1NC(=O)Nc1cnc(N2CCCCC2)nc1-c1ccccc1Cl` [Compound 56, N-[4-(2-Chlorophenyl)-2-(N-piperidino)pyrimidin-5-yl]-N'-(2,6-diisopropylphenyl)urea], the inhibition at 0.01 µM in experiment [1] stood at 69.5%.

As for `Cc1cc(C)c(NC(=O)Nc2c(C)nc(-c3ccccc3)nc2-c2ccccc2Cl)c(C)c1` [Compound 3, N-[4-(2-Chlorophenyl)-6-methyl-2-phenylpyrimidin-5-yl]-N'-(2,4,6-trimethylphenyl)urea], the inhibition at 1 µM in experiment [1] worked out at 88.3%.

As for `CCOc1ncc(NC(=O)Nc2c(C(C)C)cccc2C(C)C)c(-c2ccccc2Cl)n1` [Compound 52, N-[4-(2-Chlorophenyl)-2-ethoxypyrimidin-5-yl]-N'-(2,6-diisopropylphenyl)urea], the inhibition at 0.01 µM in experiment [1] came to 64.7%.

For `CC(C)c1cccc(C(C)C)c1NC(=O)Nc1ccc(-c2ccccc2)nc1-c1ccccc1Cl` [Compound 63, N-[2-(2-Chlorophenyl)-6-phenylpyridin-3-yl]-N'-(2,6-diisopropylphenyl)urea], in experiment [1], the inhibition at 0.01 µM turned out to be 53.1%.

As to `CC(C)c1cccc(C(C)C)c1NC(=O)Nc1ccc(C2CCCCC2)nc1-c1ccccc1Cl` [Compound 67, N-[2-(2-Chlorophenyl)-6-cyclohexylpyridin-3-yl]-N'-(2,6-diisopropylphenyl)urea], the inhibition at 0.01 µM in experiment [1] amounted to 58%.

As for `CC(C)c1cccc(C(C)C)c1NC(=O)Nc1cnc(-c2ccccc2)nc1-c1ccc(Cl)cc1` [Compound 28, N-[4-(4-Chlorophenyl)-2-phenylpyrimidin-5-yl]-N'-(2,6-diisopropylphenyl)urea], the inhibition at 0.01 µM in experiment [1] was 40.7%.

Regarding `CC(C)c1cccc(C(C)C)c1NC(=O)Nc1cnc(-c2ccccc2)nc1-c1ccc(Cl)cc1Cl` [Compound 30, N-[4-(2,4-Dichlorophenyl)-2-phenylpyrimidin-5-yl]-N'-[2,6-diisopropylphenyl)urea], in experiment [1], the inhibition at 0.01 µM is 37.1%.

On to `Cc1nc(-c2ccccc2)nc(-c2ccccc2Cl)c1NC(=O)Nc1c(C(C)C)cccc1C(C)C` [Compound 2, N-[4-(2-Chlorophenyl)-6-methyl-2-phenylpyrimidin-5-yl]-N'-(2,6-diisopropylphenyl)urea], for which the inhibition in vivo at 30 mg/kg in experiment [2] is 42.7%. Besides, in experiment [1], the inhibition at 0.01 µM is 58.5% and the inhibition at 1 µM came out at 99.2%.

For `CC(C)c1cccc(C(C)C)c1NC(=O)Nc1cnc(-c2ccccc2)nc1-c1cccc(Cl)c1` [Compound 26, N-[4-(3-Chlorophenyl)-2-phenylpyrimidin-5-yl]-N'-(2,6-diisopropylphenyl)urea], the inhibition at 0.01 µM in experiment [1] amounted to 58.9%.
